Source: PubChem BioAssay (NCI)
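Assay format: 96-well plates, 48-hour exposure. Abbreviation: GI50, concentration required for 50% inhibition of growth. The concentration for full growth arrest is given as TGI.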

Tests used:
Assay in all cases: growth of human tumour cells (NCI), 48 h
HL-60(TB) leukemia = test system: HL-60(TB) leukemia
HCT-15 colon = test system: HCT-15 colon
SN12C renal = test system: SN12C renal
CCRF-CEM leukemia = test system: CCRF-CEM leukemia
NCI-H226 lung = test system: NCI-H226 lung
OVCAR-3 ovarian = test system: OVCAR-3 ovarian
OVCAR-4 ovarian = test system: OVCAR-4 ovarian
SR leukemia = test system: SR leukemia
KM12 colon = test system: KM12 colon
UO-31 renal = test system: UO-31 renal
HT29 colon = test system: HT29 colon
MCF7 breast = test system: MCF7 breast
MDA-MB-435 = test system: MDA-MB-435
SK-MEL-5 melanoma = test system: SK-MEL-5 melanoma
MDA-MB-231 breast = test system: MDA-MB-231 breast
DU-145 prostate = test system: DU-145 prostate
SF-268 CNS = test system: SF-268 CNS
UACC-62 melanoma = test system: UACC-62 melanoma
HOP-92 NSCLC = test system: HOP-92 NSCLC
IGROV1 ovarian = test system: IGROV1 ovarian
NCI-H522 lung = test system: NCI-H522 lung
M14 melanoma = test system: M14 melanoma
LOX IMVI melanoma = test system: LOX IMVI melanoma
PC-3 prostate = test system: PC-3 prostate
TK-10 renal = test system: TK-10 renal
786-0 renal = test system: 786-0 renal
SNB-19 CNS = test system: SNB-19 CNS
OVCAR-8 ovarian = test system: OVCAR-8 ovarian
RPMI-8226 leukemia = test system: RPMI-8226 leukemia
BT-549 breast = test system: BT-549 breast
SK-OV-3 ovarian = test system: SK-OV-3 ovarian
HOP-62 NSCLC = test system: HOP-62 NSCLC
SW-620 colon = test system: SW-620 colon
K-562 leukemia = test system: K-562 leukemia
NCI/ADR-RES ovarian = test system: NCI/ADR-RES ovarian
SK-MEL-2 melanoma = test system: SK-MEL-2 melanoma
UACC-257 melanoma = test system: UACC-257 melanoma
SF-295 CNS = test system: SF-295 CNS
HCC-2998 colon = test system: HCC-2998 colon
MALME-3M melanoma = test system: MALME-3M melanoma
HCT-116 colon = test system: HCT-116 colon
NCI-H460 lung = test system: NCI-H460 lung
U251 CNS = test system: U251 CNS
SF-539 CNS = test system: SF-539 CNS
HS 578T breast = test system: HS 578T breast
T-47D breast = test system: T-47D breast
RXF 393 renal = test system: RXF 393 renal
ACHN renal = test system: ACHN renal
CAKI-1 renal = test system: CAKI-1 renal
EKVX NSCLC = test system: EKVX NSCLC
A498 renal = test system: A498 renal
MOLT-4 leukemia = test system: MOLT-4 leukemia
SK-MEL-28 melanoma = test system: SK-MEL-28 melanoma
COLO 205 colon = test system: COLO 205 colon
OVCAR-5 ovarian = test system: OVCAR-5 ovarian
SNB-75 CNS = test system: SNB-75 CNS
A549 NSCLC = test system: A549 NSCLC

C#C[C@]1(O)CC[C@H]2[C@@H]3CC=C4c5sc(Nc6ccc(Cl)cn6)nc5CC[C@]4(C)[C@H]3CC[C@@]21C
GI50 (HL-60(TB) leukemia): 3.5 µM
TGI (HL-60(TB) leukemia): > 100 µM
GI50 (HCT-15 colon): 3.03 µM
TGI (HCT-15 colon): > 100 µM
GI50 (SN12C renal): > 100 µM
TGI (SN12C renal): > 100 µM
GI50 (CCRF-CEM leukemia): 0.0721 µM
TGI (CCRF-CEM leukemia): > 100 µM
GI50 (NCI-H226 lung): 7.41 µM
TGI (NCI-H226 lung): > 100 µM
GI50 (OVCAR-3 ovarian): 7.66 µM
TGI (OVCAR-3 ovarian): > 100 µM
GI50 (OVCAR-4 ovarian): 7.73 µM
TGI (OVCAR-4 ovarian): > 100 µM
GI50 (SR leukemia): 3.08 µM
TGI (SR leukemia): > 100 µM
GI50 (KM12 colon): 4.04 µM
TGI (KM12 colon): > 100 µM
GI50 (UO-31 renal): 2.96 µM
TGI (UO-31 renal): > 100 µM
GI50 (HT29 colon): 6.83 µM
TGI (HT29 colon): > 100 µM
GI50 (MCF7 breast): 1.8 µM
TGI (MCF7 breast): 4.47 µM
GI50 (MDA-MB-435): 3.73 µM
TGI (MDA-MB-435): > 100 µM
GI50 (SK-MEL-5 melanoma): 79.5 µM
TGI (SK-MEL-5 melanoma): > 100 µM
GI50 (MDA-MB-231 breast): 3.34 µM
TGI (MDA-MB-231 breast): > 100 µM
GI50 (DU-145 prostate): > 100 µM
TGI (DU-145 prostate): > 100 µM
GI50 (SF-268 CNS): 4.35 µM
TGI (SF-268 CNS): > 100 µM
GI50 (UACC-62 melanoma): 3.23 µM
TGI (UACC-62 melanoma): > 100 µM
GI50 (HOP-92 NSCLC): 3.45 µM
TGI (HOP-92 NSCLC): 73.4 µM
GI50 (IGROV1 ovarian): 9.14 µM
TGI (IGROV1 ovarian): > 100 µM
GI50 (NCI-H522 lung): 10.5 µM
TGI (NCI-H522 lung): > 100 µM
GI50 (M14 melanoma): 3.12 µM
TGI (M14 melanoma): > 100 µM
GI50 (LOX IMVI melanoma): 2.1 µM
TGI (LOX IMVI melanoma): 4.33 µM
GI50 (PC-3 prostate): 1.68 µM
TGI (PC-3 prostate): 6.91 µM
GI50 (TK-10 renal): > 100 µM
TGI (TK-10 renal): > 100 µM
GI50 (786-0 renal): 1.56 µM
TGI (786-0 renal): 3.42 µM
GI50 (SNB-19 CNS): 4.95 µM
TGI (SNB-19 CNS): > 100 µM
GI50 (OVCAR-8 ovarian): 6.32 µM
TGI (OVCAR-8 ovarian): > 100 µM
GI50 (RPMI-8226 leukemia): 1.03 µM
TGI (RPMI-8226 leukemia): 4.18 µM
GI50 (BT-549 breast): 2.88 µM
TGI (BT-549 breast): 25.2 µM
GI50 (SK-OV-3 ovarian): 3.44 µM
TGI (SK-OV-3 ovarian): 13.4 µM
GI50 (HOP-62 NSCLC): 3.31 µM
TGI (HOP-62 NSCLC): > 100 µM
GI50 (SW-620 colon): 4.77 µM
TGI (SW-620 colon): > 100 µM
GI50 (K-562 leukemia): 3.34 µM
TGI (K-562 leukemia): > 100 µM
GI50 (NCI/ADR-RES ovarian): 15.9 µM
TGI (NCI/ADR-RES ovarian): > 100 µM
GI50 (SK-MEL-2 melanoma): 3.83 µM
TGI (SK-MEL-2 melanoma): > 100 µM
GI50 (UACC-257 melanoma): 2.49 µM
TGI (UACC-257 melanoma): 6.65 µM
GI50 (SF-295 CNS): 1.82 µM
TGI (SF-295 CNS): 3.75 µM
GI50 (HCC-2998 colon): 66.8 µM
TGI (HCC-2998 colon): > 100 µM
GI50 (MALME-3M melanoma): 8.97 µM
TGI (MALME-3M melanoma): > 100 µM
GI50 (HCT-116 colon): 3.47 µM
TGI (HCT-116 colon): > 100 µM
GI50 (NCI-H460 lung): 3.95 µM
TGI (NCI-H460 lung): > 100 µM
GI50 (U251 CNS): 2.66 µM
TGI (U251 CNS): > 100 µM
GI50 (SF-539 CNS): 1.62 µM
TGI (SF-539 CNS): 4.03 µM
GI50 (HS 578T breast): 2.17 µM
TGI (HS 578T breast): 6.53 µM
GI50 (T-47D breast): 61.2 µM
TGI (T-47D breast): > 100 µM
GI50 (RXF 393 renal): 0.642 µM
TGI (RXF 393 renal): 2.25 µM
GI50 (ACHN renal): 5.07 µM
TGI (ACHN renal): > 100 µM
GI50 (CAKI-1 renal): 3.48 µM
TGI (CAKI-1 renal): > 100 µM
GI50 (EKVX NSCLC): 3.51 µM
TGI (EKVX NSCLC): > 100 µM
GI50 (A498 renal): 2.15 µM
TGI (A498 renal): 4.75 µM
GI50 (MOLT-4 leukemia): 2.79 µM
TGI (MOLT-4 leukemia): > 100 µM
GI50 (SK-MEL-28 melanoma): 1.72 µM
TGI (SK-MEL-28 melanoma): 3.68 µM
GI50 (COLO 205 colon): 23.5 µM
TGI (COLO 205 colon): > 100 µM
GI50 (OVCAR-5 ovarian): 24.1 µM
TGI (OVCAR-5 ovarian): > 100 µM
GI50 (SNB-75 CNS): 4.07 µM
TGI (SNB-75 CNS): > 100 µM
GI50 (A549 NSCLC): 6.4 µM
TGI (A549 NSCLC): > 100 µM
